The record followed here is patent US20240109917A1 (ACTELION PHARMACEUTICALS LTD, priority 2020, published 2024).

A word on the IC50: it is the midpoint of a concentration-inhibition curve. Low readings indicate greater potency in that assay, high ones weaker potency in that assay.

SMILES strings stand for the structures. A value given as a limit tells only on which side of the number the result lay.

For this test, the target named is VEGFR2, unphosphorylated (Homo sapiens (Human), UniProt P35968). Description: VEGFR ADP GLO Assay. The test is classed as biochemical.
Chain of VEGFR2, unphosphorylated (P35968 20-1356): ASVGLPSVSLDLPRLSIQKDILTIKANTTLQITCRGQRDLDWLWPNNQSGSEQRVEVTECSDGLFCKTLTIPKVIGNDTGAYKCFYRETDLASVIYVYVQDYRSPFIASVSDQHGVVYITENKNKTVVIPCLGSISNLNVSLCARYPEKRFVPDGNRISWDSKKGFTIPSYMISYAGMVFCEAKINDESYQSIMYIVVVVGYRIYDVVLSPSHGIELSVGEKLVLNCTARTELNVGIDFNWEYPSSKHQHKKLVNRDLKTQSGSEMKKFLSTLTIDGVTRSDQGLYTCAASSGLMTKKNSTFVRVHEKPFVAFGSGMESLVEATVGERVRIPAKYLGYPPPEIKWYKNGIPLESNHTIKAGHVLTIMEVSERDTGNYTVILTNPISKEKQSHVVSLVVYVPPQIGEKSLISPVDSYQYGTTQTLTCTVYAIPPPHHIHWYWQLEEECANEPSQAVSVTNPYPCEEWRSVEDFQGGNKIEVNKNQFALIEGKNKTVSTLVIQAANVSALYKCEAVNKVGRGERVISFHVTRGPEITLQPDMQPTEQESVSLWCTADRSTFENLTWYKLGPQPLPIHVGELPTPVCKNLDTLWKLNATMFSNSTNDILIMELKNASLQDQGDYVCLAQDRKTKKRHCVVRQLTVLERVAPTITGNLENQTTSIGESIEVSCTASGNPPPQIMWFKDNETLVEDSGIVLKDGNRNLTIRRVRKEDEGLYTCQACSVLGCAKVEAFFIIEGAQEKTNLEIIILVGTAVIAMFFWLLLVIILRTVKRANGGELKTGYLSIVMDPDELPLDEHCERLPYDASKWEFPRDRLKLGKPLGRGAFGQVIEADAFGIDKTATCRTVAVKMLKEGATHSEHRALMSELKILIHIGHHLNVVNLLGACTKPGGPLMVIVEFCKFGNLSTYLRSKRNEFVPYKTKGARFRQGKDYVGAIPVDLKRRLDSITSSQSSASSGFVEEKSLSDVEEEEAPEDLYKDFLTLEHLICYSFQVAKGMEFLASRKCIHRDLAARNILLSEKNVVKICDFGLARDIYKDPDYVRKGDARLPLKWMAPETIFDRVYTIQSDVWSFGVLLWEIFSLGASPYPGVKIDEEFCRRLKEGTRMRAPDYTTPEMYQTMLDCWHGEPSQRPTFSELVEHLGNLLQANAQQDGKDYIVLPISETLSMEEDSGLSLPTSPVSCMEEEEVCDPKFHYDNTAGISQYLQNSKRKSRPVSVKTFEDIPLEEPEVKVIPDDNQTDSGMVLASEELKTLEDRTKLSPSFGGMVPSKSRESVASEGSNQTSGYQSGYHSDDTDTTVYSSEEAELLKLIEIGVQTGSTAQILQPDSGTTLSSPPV
`Cc1ncc(C(=O)NCCN2CCC3(CCC3)C2)cc1NC(=O)c1cnn2cc(-c3cnn(C)c3)sc12` [Example 113, N-(5-((2-(6-azaspiro[3.4]octan-6-yl)ethyl)carbamoyl)-2-methylpyridin-3-yl)-2-(1-methyl-1H-pyrazol-4-yl)pyrazolo[5,1-b]thiazole-7-carboxamide] showed an IC50 above 7.5 µM. The value for `Cc1ncc(C(=O)NCCN2CCCC2(C)C)cc1NC(=O)c1cnn2cc(-c3cncnc3)sc12` [Example 139, N-(5-((2-(2,2-dimethylpyrrolidin-1-yl)ethyl)carbamoyl)-2-methylpyridin-3-yl)-2-(pyrimidin-5-yl)pyrazolo[5,1-b]thiazole-7-carboxamide] was above 7.5 µM; that for `Cc1ncc(C(=O)NCCN2CC(C)(C)C2)cc1NC(=O)c1cnn2cc(-c3cnn(C)c3)sc12` [Example 126, N-(5-((2-(3,3-dimethylazetidin-1-yl)ethyl)carbamoyl)-2-methylpyridin-3-yl)-2-(1-methyl-1H-pyrazol-4-yl)pyrazolo[5,1-b]thiazole-7-carboxamide] was above 7.5 µM; that for `Cc1ncc(C(=O)NCCN2CCC23CCC3)cc1NC(=O)c1cnn2cc(-c3cnn(C)c3C)sc12` [Example 169, N-(5-((2-(1-azaspiro[3.3]heptan-1-yl)ethyl)carbamoyl)-2-methylpyridin-3-yl)-2-(1,5-dimethyl-1H-pyrazol-4-yl)pyrazolo[5,1-b]thiazole-7-carboxamide] was above 7.5 µM.

Compound `Cc1ncc(C(=O)NCCN2CC3CCC2CC3)cc1NC(=O)c1cnn2cc(-c3ccc4oc(=O)[nH]c4c3)sc12` [Example 145, N-(5-((2-(2-azabicyclo[2.2.2]octan-2-yl)ethyl)carbamoyl)-2-methylpyridin-3-yl)-2-(2-oxo-2,3-dihydrobenzo[d]oxazol-5-yl)pyrazolo[5,1-b]thiazole-7-carboxamide] showed an IC50 above 0.833 µM. As for `Cc1ncc(C(=O)NCCN2CCCOCC2)cc1NC(=O)c1cnn2cc(-c3cnn(C)c3)sc12` [Example 121, N-(5-((2-(1,4-oxazepan-4-yl)ethyl)carbamoyl)-2-methylpyridin-3-yl)-2-(1-methyl-1H-pyrazol-4-yl)pyrazolo[5,1-b]thiazole-7-carboxamide], the figure is above 7.5 µM.

`Cc1ncc(NC(=O)CCN2CCCC2(C)C)cc1NC(=O)c1cnn2cc(-c3ccnn3C)sc12` [Example 11, N-(5-(3-(2,2-dimethylpyrrolidin-1-yl)propanamido)-2-methyl-pyridin-3-yl)-2-(1-methyl-1H-pyrazol-5-yl)pyrazolo[5,1-b]thiazole-7-carboxamide] yielded an IC50 above 7.5 µM.

Compound `Cc1ncc(C(=O)NCCN2CCCC23COC3)cc1NC(=O)c1cnn2cc(-c3c(C)nn(C)c3C)sc12` [Example 179, N-(5-((2-(2-oxa-5-azaspiro[3.4]octan-5-yl)ethyl)carbamoyl)-2-methylpyridin-3-yl)-2-(1,3,5-trimethyl-1H-pyrazol-4-yl)pyrazolo[5,1-b]thiazole-7-carboxamide] displayed an IC50 above 7.5 µM. `Cc1ncc(C(=O)NCCN2CC3CC(C3)C2)cc1NC(=O)c1cnn2cc(-c3cnn(C)c3)sc12` [Example 5, N-(5-((2-(3-azabicyclo[3.1.1]heptan-3-yl)ethyl)carbamoyl)-2-methylpyridin-3-yl)-2-(1-methyl-1H-pyrazol-4-yl)pyrazolo[5,1-b]thiazole-7-carboxamide] displayed an IC50 above 7.5 µM. The value for `Cc1ncc(NC(=O)CCN2CC(C)(C)C2)cc1NC(=O)c1cnn2cc(-c3cnn(C)c3)sc12` [Example 96, N-(5-(3-(3,3-dimethylazetidin-1-yl)propanamido)-2-methylpyridin-3-yl)-2-(1-methyl-1H-pyrazol-4-yl)pyrazolo[5,1-b]thiazole-7-carboxamide] was above 7.5 µM; that for `COCCn1cc(-c2cn3ncc(C(=O)Nc4cc(C(=O)NCCN5CCC(F)(F)CC5)cnc4C)c3s2)cn1` [Example 165, N-(5-((2-(4,4-difluoropiperidin-1-yl)ethyl)carbamoyl)-2-methylpyridin-3-yl)-2-(1-(2-methoxyethyl)-1H-pyrazol-4-yl)pyrazolo[5,1-b]thiazole-7-carboxamide] was above 7.5 µM. The value for `Cc1ncc(C(=O)NCCN2CCCC2(C)C)cc1NC(=O)c1cnn2cc(-c3ccn(C)n3)sc12` [Example 9, N-(5-((2-(2,2-dimethylpyrrolidin-1-yl)ethyl)carbamoyl)-2-methylpyridin-3-yl)-2-(1-methyl-1H-pyrazol-3-yl)pyrazolo[5,1-b]thiazole-7-carboxamide] was above 7.5 µM; that for `Cc1ncc(C(=O)NCCN2CCOCC23CC3)cc1NC(=O)c1cnn2cc(-c3cnn(C)c3)sc12` [Example 110, N-(5-((2-(7-oxa-4-azaspiro[2.5]octan-4-yl)ethyl)carbamoyl)-2-methylpyridin-3-yl)-2-(1-methyl-1H-pyrazol-4-yl)pyrazolo[5,1-b]thiazole-7-carboxamide] was 0.664 µM; that for `Cc1ncc(C(=O)NCCN2CC3CCC2CC3)cc1NC(=O)c1cnn2cc(-c3cnn(CC(N)=O)c3)sc12` [Example 150, N-(5-((2-(2-azabicyclo[2.2.2]octan-2-yl)ethyl)carbamoyl)-2-methylpyridin-3-yl)-2-(1-(2-amino-2-oxoethyl)-1H-pyrazol-4-yl)pyrazolo[5,1-b]thiazole-7-carboxamide] was above 7.5 µM. The compound `CC(=O)Nc1ccnc(-c2cn3ncc(C(=O)Nc4cc(C(=O)NCCN5CC6CCC5CC6)cnc4C)c3s2)c1` [Example 146, N-(5-((2-(2-azabicyclo[2.2.2]octan-2-yl)ethyl)carbamoyl)-2-methylpyridin-3-yl)-2-(4-acetamidopyridin-2-yl)pyrazolo[5,1-b]thiazole-7-carboxamide] had an IC50 above 7.5 µM. As for `Cc1ncc(C(=O)NCCN2CCCC23COC3)cc1NC(=O)c1cnn2cc(-c3cn(C)nc3C)sc12` [Example 176, N-(5-((2-(2-oxa-5-azaspiro[3.4]octan-5-yl)ethyl)carbamoyl)-2-methylpyridin-3-yl)-2-(1,3-dimethyl-1H-pyrazol-4-yl)pyrazolo[5,1-b]thiazole-7-carboxamide], the figure is above 7.5 µM. As for `Cc1ncc(C(=O)NCCN2CCC3(CC3)C2)cc1NC(=O)c1cnn2cc(-c3ccccn3)sc12` [Example 160, N-(5-((2-(5-azaspiro[2.4]heptan-5-yl)ethyl)carbamoyl)-2-methylpyridin-3-yl)-2-(pyridin-2-yl)pyrazolo[5,1-b]thiazole-7-carboxamide], the figure is above 7.5 µM.

On to `COCCn1cc(-c2cn3ncc(C(=O)Nc4cc(C(=O)NCCN5CC6(CCC6)C5)cnc4C)c3s2)cn1` [Example 168, N-(5-((2-(2-azaspiro[3.3]heptan-2-yl)ethyl)carbamoyl)-2-methylpyridin-3-yl)-2-(1-(2-methoxyethyl)-1H-pyrazol-4-yl)pyrazolo[5,1-b]thiazole-7-carboxamide], for which the IC50 is above 7.5 µM.

On to `Cc1ncc(C(=O)NCCN2C3CCCC2CCC3)cc1NC(=O)c1cnn2cc(-c3cnn(C)c3)sc12` [Example 4, N-(5-((2-(9-azabicyclo[3.3.1]nonan-9-yl)ethyl)carbamoyl)-2-methylpyridin-3-yl)-2-(1-methyl-1H-pyrazol-4-yl)pyrazolo[5,1-b]thiazole-7-carboxamide], for which the IC50 is above 7.5 µM. As for `COCCN(CCNC(=O)c1cnc(C)c(NC(=O)c2cnn3cc(-c4cnn(C)c4)sc23)c1)C(C)C` [Example 127, N-(5-((2-(isopropyl(2-methoxyethyl)amino)ethyl)carbamoyl)-2-methylpyridin-3-yl)-2-(1-methyl-1H-pyrazol-4-yl)pyrazolo[5,1-b]thiazole-7-carboxamide], the figure is above 7.5 µM. Turning to `Cc1ncc(C(=O)NCCN2CCC(C)(C)C2)cc1NC(=O)c1cnn2cc(-c3ccncc3)sc12` [Example 156, N-(5-((2-(3,3-dimethylpyrrolidin-1-yl)ethyl)carbamoyl)-2-methylpyridin-3-yl)-2-(pyridin-4-yl)pyrazolo[5,1-b]thiazole-7-carboxamide], the IC50 is above 7.5 µM. The value for `Cc1ncc(C(=O)NCCN2CC3CCC2CC3)cc1NC(=O)c1cnn2cc(-c3ccncc3)sc12` [Example 148, N-(5-((2-(2-azabicyclo[2.2.2]octan-2-yl)ethyl)carbamoyl)-2-methylpyridin-3-yl)-2-(pyridin-4-yl)pyrazolo[5,1-b]thiazole-7-carboxamide] was above 7.5 µM. As for `Cc1ncc(NC(=O)CCN2CCC3(CC2)CC3)cc1NC(=O)c1cnn2cc(-c3cnn(C)c3)sc12` [Example 97, N-(5-(3-(6-azaspiro[2.5]octan-6-yl)propanamido)-2-methylpyridin-3-yl)-2-(1-methyl-1H-pyrazol-4-yl)pyrazolo[5,1-b]thiazole-7-carboxamide], the figure is above 7.5 µM; as for `Cc1ncc(C(=O)NCCN2CC3CCC2CC3)cc1NC(=O)c1cnn2cc(-c3cnn(CS(C)(=O)=O)c3)sc12` [Example 143, N-(5-((2-(2-azabicyclo[2.2.2]octan-2-yl)ethyl)carbamoyl)-2-methylpyridin-3-yl)-2-(1-((methylsulfonyl)methyl)-1H-pyrazol-4-yl)pyrazolo[5,1-b]thiazole-7-carboxamide], above 7.5 µM.

For `Cc1ncc(C(=O)NCCN2CCC3(CC3)C2)cc1NC(=O)c1cnn2cc(-c3cccnc3)sc12` [Example 159, N-(5-((2-(5-azaspiro[2.4]heptan-5-yl)ethyl)carbamoyl)-2-methylpyridin-3-yl)-2-(pyridin-3-yl)pyrazolo[5,1-b]thiazole-7-carboxamide], the IC50 was above 7.5 µM. The value for `Cc1ncc(NC(=O)NCC2CCN(C)CC2)cc1NC(=O)c1cnn2cc(-c3cnn(C)c3)sc12` [Example 107, 2-(1-methyl-1H-pyrazol-4-yl)-N-(2-methyl-5-(3-((1-methylpiperidin-4-yl)methyl)ureido)pyridin-3-yl)pyrazolo[5,1-b]thiazole-7-carboxamide] was above 7.5 µM; that for `Cc1ncc(C(=O)NCCN2CCC(F)(F)CC2)cc1NC(=O)c1cnn2cc(-c3cnn(C)c3)sc12` [Example 119, N-(5-((2-(4,4-difluoropiperidin-1-yl)ethyl)carbamoyl)-2-methylpyridin-3-yl)-2-(1-methyl-1H-pyrazol-4-yl)pyrazolo[5,1-b]thiazole-7-carboxamide] was above 7.5 µM.
